The values below come from US11708326B2, “Immunomodulator compounds” (CHEMOCENTRYX, INC., priority 2017, dated 2023).

The test concerns the target human PD-L1 / Human PD-1 (Homo sapiens (Human), UniProt Q9NZQ7). Put plainly: Enzyme-Linked Immunosorbent Assay (ELISA), human PD-1 binding to plate-coated human PD-L1. The conditions noted are these: PD-1/PD-L1 ELISA, absorbance at 450 nm. The protocol:
Biological Example: Enzyme-Linked Immunosorbent Assay—ELISA
96 Well plates were coated with 1 μg/mL of human PD-L1 (obtained from R&D) in PBS overnight at 4° C. The wells were then blocked with 2% BSA in PBS (W/V) with 0.05% TWEEN-20 for 1 hour at 37° C. The plates were washed 3 times with PBS/0.05% TWEEN-20 and the compounds were serial diluted (1:5) in dilution medium and added to the ELISA plates. Human PD-1 and biotin 0.3 μg/mL (ACRO Biosystems) were added and incubated for 1 hour at 37° C. then washed 3 times with PBS/0.05% TWEEN-20. A second block was performed with 2% BSA in PBS (W/V)/0.05% TWEEN-20 for 10 min at 37° C. and was washed 3 times with PBS/0.05% TWEEN-20. Streptavidin-HRP was added for 1 hour at 37° C. then washed 3 times with PBS/0.05% TWEEN-20. TMB substrate was added and reacted for 20 min at 37° C. A stop solution (2 N aqueous H2SO4) was added. The absorbance was read at 450 nm using a micro-plate spectrophotometer.
(In an ELISA, binding on a coated surface is turned into a signal by an enzyme label.)

Where only a bound is given, the exact number is not on record here.

human PD-L1 / Human PD-1, sequence (Q9NZQ7 19-239): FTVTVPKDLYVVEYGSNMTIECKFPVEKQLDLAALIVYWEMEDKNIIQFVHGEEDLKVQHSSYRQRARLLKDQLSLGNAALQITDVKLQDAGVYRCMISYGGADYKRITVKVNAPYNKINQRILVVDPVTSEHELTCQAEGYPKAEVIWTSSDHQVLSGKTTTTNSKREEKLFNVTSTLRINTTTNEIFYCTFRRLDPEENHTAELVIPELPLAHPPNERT

Broadly, the IC50 is the concentration that inhibits the measured activity by half. Low values mean higher potency, high ones lower potency. As to `Cc1c(OCCCN2CCC(O)CC2)cccc1-c1cccc2c1CC[C@@H]2Oc1cc(OCc2cncc(C#N)c2)c(CN[C@@](C)(CO)C(=O)O)cc1Cl`, the IC50 was ≤ 5 nM. The figure for `Cc1c(OCCCN2CCC(O)CC2)cccc1-c1cccc2c1CC[C@@H]2Oc1cc(OCCCN2CC[C@@H](O)C2)c(CN[C@@H]2CCCC[C@@H]2O)cc1Cl` is ≤ 5 nM. For `C[C@@](CO)(NCc1cc(Cl)c(OC2CCc3c(-c4cccc(OCCCN5CC(O)C5)c4Cl)cc(F)cc32)cc1OCc1cncc(C#N)c1)C(=O)O` (stereo partly shown), the half-maximal inhibitory concentration (IC50) is ≤ 5 nM. As to `COc1cc(OC2CCc3c(-c4cccc(OCCCN5CC(O)C5)c4Cl)cccc32)cc(OC)c1CN[C@@](C)(CO)C(=O)O` (stereo partly shown), the concentration for half-maximal inhibition (IC50) fell in the range of 5 to 500 nM. The figure for `N#Cc1cncc(COc2cc(O[C@H]3CCc4c(-c5cccc(OCCCN6CCC(F)CC6)c5Cl)cccc43)c(Cl)cc2CN[C@@H]2CCCC[C@H]2F)c1` is 5 to 500 nM; for `N#Cc1cncc(COc2cc(O[C@H]3CCc4c(-c5cccc(OCCCn6ccnc6)c5Cl)cccc43)c(Cl)cc2CN[C@@H]2CCCC[C@@H]2O)c1` it is 5 to 500 nM. The result for `Cc1c(OCCCN2CCC(F)CC2)cccc1-c1cc(F)cc2c1CCC2Oc1cc(OCc2cc(C#N)cc(C#N)c2)c(CN[C@H]2CCC(=O)NC2)cc1Cl` (stereo partly shown) reads 5 to 500 nM; that for `CCOc1cc(NC2CCc3c(-c4cccc(OCCCN5CCC(C)(F)CC5)c4C)cccc32)c(Cl)cc1CNC[C@@H]1CCC(=O)N1` (stereo partly shown), 5 to 500 nM. The figure for `CCOc1cc(O[C@@H]2c3cccc(-c4cccc(OCCCN5CCC(C)(F)CC5)c4C)c3C[C@@H]2F)c(Cl)cc1CNC(C(=O)NS(C)(=O)=O)[C@@H](C)O` (stereo partly shown) is 5 to 500 nM. `CCOc1cc(NC2CCc3c(-c4cccc(OCCCN5CCCC5(C)C)c4C)cccc32)c(Cl)cc1CNC[C@@H]1CCC(=O)N1` (stereo partly shown) gave a 50% inhibitory concentration (IC50) of 5 to 500 nM.
